According to US10669272B2, “Substituted naphthyridinone compounds useful as T cell activators” (BRISTOL-MYERS SQUIBB COMPANY, priority 2018, dated 2020):
Where two headings read alike, the source gives them in different places.

Tests used:
human DGKα = biological target: T1, human DGKα (Homo sapiens, UniProt P23743); assay: DGKα LIPGLO assay (extruded liposome substrate), in vitro DGK inhibition; type: biochemical; settings: read-out: DGKa LIPGLO IC50
T1 construct: TVMV protease cleavage site (C); Hexa-His (C); made in house; host or cells: Sf9 insect cells (baculovirus, Bac-to-Bac)

human DGKζ = biological target: T2, human DGKζ (Homo sapiens, UniProt Q13574); assay: DGKζ LIPGLO assay (extruded liposome substrate), in vitro DGK inhibition; type: biochemical; settings: read-out: DGKz LIPGLO IC50
T2 construct: TVMV protease cleavage site (C); Hexa-His (C); made in house; host or cells: Sf9 insect cells (baculovirus, Bac-to-Bac)

Human venous whole blood = assay: Human whole blood IFN-γ assay; type: cell-based;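 also: blood from healthy donors exposed to compound for 1 h before stimulation with anti-CD3 and anti-CD28 at 1 µg/mL each, IFN-γ quantified in supernatant by AlphaLISA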
naïve human CD8 T cells = assay: Human CD8 T cells IFN-γ assay; type: cell-based; settings: read-out: HuCD8 INFG Normalized EC50;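 also: Naïve human CD8 T cells stimulated with plate-bound anti-CD3 and soluble anti-CD28, IFN-γ in supernatant quantified by AlphaLISA and converted to pg/mL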
[1] = Homo sapiens, T-cell, 20 h, naïve human CD8 T cells, anti-CD3 plus anti-CD28, 3 μM reference compound = 100% activation
[2] = human whole blood, normalized to 3 μM reference compound with anti-CD3 plus anti-CD28 as 100% activation, read-out: INFg Whole Blood Normalized Agonist EC50
[3] = normalized to 3 μM reference compound with anti-CD3 plus anti-CD28 as 100% activation
[4] = Homo sapiens, T-cell, 20 h, normalized to 3 μM reference compound with anti-CD3 plus anti-CD28 as 100% activation
[5] = Homo sapiens, 24 h, human whole blood, normalized to 3 μM reference compound with anti-CD3 plus anti-CD28 as 100% activation, read-out: INFg Whole Blood Normalized Agonist EC50
[6] = Homo sapiens, human whole blood, normalized to 3 μM reference compound with anti-CD3 plus anti-CD28 as 100% activation, read-out: INFg Whole Blood Normalized Agonist EC50

T2 sequence (Q13574 with tags, fused parts or gaps isoform Q13574-4): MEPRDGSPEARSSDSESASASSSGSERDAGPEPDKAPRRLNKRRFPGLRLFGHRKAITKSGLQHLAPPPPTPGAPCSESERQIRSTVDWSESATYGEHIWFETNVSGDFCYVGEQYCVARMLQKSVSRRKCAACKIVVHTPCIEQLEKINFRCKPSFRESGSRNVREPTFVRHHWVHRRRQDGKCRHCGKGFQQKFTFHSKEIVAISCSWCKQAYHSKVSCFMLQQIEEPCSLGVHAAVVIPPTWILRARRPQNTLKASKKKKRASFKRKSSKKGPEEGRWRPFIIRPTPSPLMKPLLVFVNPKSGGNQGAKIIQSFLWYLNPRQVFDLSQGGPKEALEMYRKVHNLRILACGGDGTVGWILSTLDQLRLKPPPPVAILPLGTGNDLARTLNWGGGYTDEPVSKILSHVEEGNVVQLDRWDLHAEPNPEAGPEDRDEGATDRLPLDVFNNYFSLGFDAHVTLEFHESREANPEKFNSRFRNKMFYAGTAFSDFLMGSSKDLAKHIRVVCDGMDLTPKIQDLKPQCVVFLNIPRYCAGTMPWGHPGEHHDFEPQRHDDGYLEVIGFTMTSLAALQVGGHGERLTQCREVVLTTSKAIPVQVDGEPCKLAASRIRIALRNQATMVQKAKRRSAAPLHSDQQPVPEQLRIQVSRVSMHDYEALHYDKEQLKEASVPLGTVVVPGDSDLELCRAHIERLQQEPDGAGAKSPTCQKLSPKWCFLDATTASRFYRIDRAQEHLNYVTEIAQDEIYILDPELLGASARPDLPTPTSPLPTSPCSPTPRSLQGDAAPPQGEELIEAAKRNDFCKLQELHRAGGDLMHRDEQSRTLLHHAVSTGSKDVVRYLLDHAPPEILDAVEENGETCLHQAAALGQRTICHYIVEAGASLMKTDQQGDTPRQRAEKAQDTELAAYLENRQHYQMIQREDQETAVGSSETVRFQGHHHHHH
T1 sequence (P23743 with tags, fused parts or gaps): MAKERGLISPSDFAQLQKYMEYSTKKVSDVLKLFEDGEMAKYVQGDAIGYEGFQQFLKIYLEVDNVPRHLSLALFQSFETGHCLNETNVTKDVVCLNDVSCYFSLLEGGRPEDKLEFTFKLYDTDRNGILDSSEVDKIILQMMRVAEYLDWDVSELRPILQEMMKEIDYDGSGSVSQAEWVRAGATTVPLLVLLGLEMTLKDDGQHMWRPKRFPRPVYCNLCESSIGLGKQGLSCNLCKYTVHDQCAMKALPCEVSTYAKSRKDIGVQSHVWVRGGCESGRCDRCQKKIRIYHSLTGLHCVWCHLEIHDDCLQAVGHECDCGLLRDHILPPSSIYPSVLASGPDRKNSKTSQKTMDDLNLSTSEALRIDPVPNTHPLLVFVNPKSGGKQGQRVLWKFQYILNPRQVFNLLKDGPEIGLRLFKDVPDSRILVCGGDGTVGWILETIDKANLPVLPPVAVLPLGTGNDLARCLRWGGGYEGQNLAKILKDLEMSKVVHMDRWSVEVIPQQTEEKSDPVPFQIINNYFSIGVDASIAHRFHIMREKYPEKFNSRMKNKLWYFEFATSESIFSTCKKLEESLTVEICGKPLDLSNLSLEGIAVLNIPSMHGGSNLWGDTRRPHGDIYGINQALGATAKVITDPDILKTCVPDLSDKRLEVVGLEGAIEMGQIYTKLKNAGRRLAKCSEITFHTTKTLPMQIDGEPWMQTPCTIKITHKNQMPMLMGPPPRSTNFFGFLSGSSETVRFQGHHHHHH

| Compound | IC50 (human DGKα; liposome (LIPGLO) assay) [nM] | IC50 (human DGKζ; liposome (LIPGLO) assay) [nM] | EC50 (naïve human CD8 T cells; [4]) [nM] | other results |
| --- | --- | --- | --- | --- |
| C[C@@H]1CN(c2cc(=O)n(C)c3ccc(C#N)nc23)[C@@H](C)CN1C(c1ccc(F)cc1)c1nc(C2CC2)no1 (single isomer, unassigned) [Example 735] |  |  |  | IC50 (human DGKα; DGKα liposome (LIPGLO) assay): 240 nM; IC50 (human DGKζ; DGKζ liposome (LIPGLO) assay): 61 nM; EC50 (Human venous whole blood; Homo sapiens, 24 h, human whole blood, anti-CD3 plus anti-CD28, 24 hours, 3 μM reference compound = 100% activation, read-out: INFg Whole Blood Normalized Agonist EC50): 140 nM; EC50 (naïve human CD8 T cells; [1]): 0.74 nM |
| COC(=O)C1CN(C(c2ccc(F)cc2)c2ccc(F)cc2)CCN1c1c(C#N)c(=O)n(C)c2ccc(C#N)nc12 (stereo not drawn) [Example 114, Methyl 4-(bis(4-fluorophenyl)methyl)-1-(3,6-dicyano-1-methyl-2-oxo-1,2-dihydro-1,5-naphthyridin-4-yl)piperazine-2-carboxylate] | 420 | 1600 | 57 | EC50 (Human venous whole blood; [5]): 490 nM |
| C[C@@H]1CN(c2cc(=O)n(C)c3ccc(C#N)nc23)[C@@H](C)CN1C(c1ccc(F)cc1)c1ccccc1F (stereo partly drawn) [Example 284, 8-[(2S,5R)-4-[(2-fluorophenyl)(4-fluorophenyl)methyl]-2,5-dimethylpiperazin-1-yl]-5-methyl-6-oxo-5,6-dihydro-1,5-naphthyridine-2-carbonitrile] |  |  | 36 | EC50 (Human venous whole blood; Homo sapiens, 24 h, read-out: INFg Whole Blood Normalized Agonist EC50, human whole blood, normalized to 3 μM reference compound with anti-CD3 plus anti-CD28 as 100% activation): 780 nM |
| CCC(c1ccc(F)cc1F)N1C[C@H](C)N(c2cc(=O)n(C)c3ccc(C#N)nc23)C[C@H]1C (mixture of isomers) [Example 337, 8-((2S,5R)-4-(1-(2,4-difluorophenyl)propyl)-2,5-dimethylpiperazin-1-yl)-5-methyl-6-oxo-5,6-dihydro-1,5-naphthyridine-2-carbonitrile] |  |  | 48 | EC50 (Human venous whole blood; [6]): 440 nM |
| C[C@@H]1CN(c2c(C#N)c(=O)n(C)c3ccc(C#N)nc23)CCN1C(c1ccccc1)c1ccc(Cl)cc1 (single isomer, unassigned) [Example 886] |  |  |  | EC50 (Human venous whole blood; read-out: INFg Whole Blood Normalized Agonist EC50, human whole blood, anti-CD3 plus anti-CD28, 24 hours, 3 μM reference compound = 100% activation): 600 nM; EC50 (naïve human CD8 T cells; [1]): 9.6 nM |
| CCC(c1ccc(F)cc1F)N1C[C@H](C)N(c2cc(=O)n(C)c3ccc(C#N)nc23)C[C@H]1C (single isomer, unassigned) [Example 338] |  |  | 20 | EC50 (Human venous whole blood; [6]): 130 nM |
| Cn1c(=O)c(C#N)c(N2CCN(C(c3ccc(F)cc3)c3ccc(F)cc3)C(CO)C2)c2nc(Br)ccc21 (stereo not drawn) [Example 17, 4-(4-(bis(4-fluorophenyl)methyl)-3-(hydroxymethyl)piperazin-1-yl)-6-bromo-1-methyl-2-oxo-1,2-dihydro-1,5-naphthyridine-3-carbonitrile] | 2300 | 19000 | 6500 |  |
| C[C@@H]1CN(C(c2ccc(F)cc2)c2ccc(F)cc2)[C@@H](C)CN1c1c(C#N)c(=O)n(C)c2ccc(C#N)nc12 [Example 6, 8-((2R,5S)-4-(bis(4-fluorophenyl)methyl)-2,5-dimethylpiperazin-1-yl)-5-methyl-6-oxo-5,6-dihydro-1,5-naphthyridine-2,7-dicarbonitrile] | 25000 | 16000 | 560 |  |
| Cn1c(=O)cc(N2CCN(C(c3ccc(F)cc3)c3ccc(F)cc3)C(C(=O)NC3CC3)C2)c2nc(C#N)ccc21 (single isomer, unassigned) [Example 48, 1-(bis(4-fluorophenyl)methyl)-4-(6-cyano-1-methyl-2-oxo-1,2-dihydro-1,5-naphthyridin-4-yl)-N-cyclopropylpiperazine-2-carboxamide] | 240000 | 20000 |  | EC50 (naïve human CD8 T cells; [3]): 3800 nM |
| Cn1c(=O)cc(N2CCN(C(c3ccc(F)cc3)c3ccc(F)cc3)CC2CF)c2nc(C#N)ccc21 (single isomer, unassigned) [Example 150, 8-(4-(bis(4-fluorophenyl)methyl)-2-(fluoromethyl)piperazin-1-yl)-5-methyl-6-oxo-5,6-dihydro-1,5-naphthyridine-2-carbonitrile] | 240000 | 29000 |  | EC50 (naïve human CD8 T cells; [3]): 10000 nM |
| COC(=O)C1CN(c2c(F)c(=O)n(C)c3ccc(C#N)nc23)CCN1C(c1ccc(Cl)cc1)c1ccc(Cl)cc1 (single isomer, unassigned) [Example 95, methyl 1-(bis(4-chlorophenyl)methyl)-4-(6-cyano-3-fluoro-1-methyl-2-oxo-1,2-dihydro-1,5-naphthyridin-4-yl)piperazine-2-carboxylate] | 2600 | 760 |  | EC50 (naïve human CD8 T cells; [3]): 21 nM |

The next lines start with results.

| IC50 (human DGKα; liposome (LIPGLO) assay) [nM] | IC50 (human DGKζ; liposome (LIPGLO) assay) [nM] | Compound | EC50 (naïve human CD8 T cells; [4]) [nM] | other results |
| --- | --- | --- | --- | --- |
| 61 | 200 | Cc1ccc(C(c2ccc(Cl)cn2)N2C[C@H](C)N(c3cc(=O)n(C)c4ccc(C#N)nc34)C[C@H]2C)cc1 (single isomer, unassigned) [Example 200] |  | EC50 (Human venous whole blood; [2]): 540 nM; EC50 (naïve human CD8 T cells; [3]): 40 nM |
| 71000 | 3100 | CC(C)Oc1ncccc1C(c1ccc(F)cc1)N1C[C@H](C)N(c2cc(=O)n(C)c3ccc(C#N)nc23)C[C@H]1C (single isomer, unassigned) [Example 207] | 430 | EC50 (Human venous whole blood; [2]): 3500 nM |
| 150 | 1700 | C[C@@H]1CN(c2cc(=O)n(C)c3ccc(C#N)nc23)[C@@H](C)CN1C(c1ccc(F)cc1)c1ccon1 (single isomer, unassigned) [Example 707] | 44 | EC50 (Human venous whole blood; [2]): 400 nM |
| 6500 | 1700 | C[C@@H]1CN(c2cc(=O)n(C)c3ccc(C#N)nc23)[C@@H](C)CN1Cc1c(Cl)cccc1Cl [Example 263, 8-[(2S,5R)-4-[(2,6-dichlorophenyl)methyl]-2,5-dimethylpiperazin-1-yl]-5-methyl-6-oxo-5,6-dihydro-1,5-naphthyridine-2-carbonitrile] | 610 | EC50 (Human venous whole blood; [5]): 6300 nM |
| 140 | 1600 | C[C@@H]1CN(c2cc(=O)n(C)c3ccc(C#N)nc23)[C@@H](C)CN1Cc1c(F)cccc1C(F)(F)F [Example 254, 8-[(2S,5R)-4-{[2-fluoro-6-(trifluoromethyl)phenyl]methyl}-2,5-dimethylpiperazin-1-yl]-5-methyl-6-oxo-5,6-dihydro-1,5-naphthyridine-2-carbonitrile] | 210 | EC50 (Human venous whole blood; [5]): 2200 nM |
| 8.6 | 1100 | C[C@@H]1CN(c2cc(=O)n(C)c3ccc(C#N)nc23)[C@@H](C)CN1Cc1ccccc1O [Example 245, 8-[(2S,5R)-4-[(2-hydroxyphenyl)methyl]-2,5-dimethylpiperazin-1-yl]-5-methyl-6-oxo-5,6-dihydro-1,5-naphthyridine-2-carbonitrile] | 750 | EC50 (Human venous whole blood; [5]): 5200 nM |
| 2900 | 1100 | C[C@@H]1CN(c2cc(=O)n(C)c3ccc(C#N)nc23)[C@@H](C)CN1C(c1ccc(F)c(F)c1)c1ccccn1 (single isomer, unassigned) [Example 376] |  | EC50 (Human venous whole blood; [2]): 380 nM; EC50 (naïve human CD8 T cells; [3]): 28 nM |
| 200 | 590 | C[C@@H]1CN(c2cc(=O)n(C)c3ccc(C#N)nc23)[C@@H](C)CN1C(c1ccc(Cl)cc1)c1ccc(F)cn1 (single isomer, unassigned) [Example 191] | 31 | EC50 (Human venous whole blood; [5]): 430 nM |
| 130 | 760 | Cc1ccc(C(c2ccc(F)cn2)N2C[C@H](C)N(c3cc(=O)n(C)c4ccc(C#N)nc34)C[C@H]2C)cc1 (single isomer, unassigned) [Example 444] | 49 | EC50 (Human venous whole blood; [5]): 510 nM |
| 72 | 290 | Cc1ccc(C(c2ccc(Cl)cc2)N2C[C@H](C)N(c3cc(=O)n(C)c4ccc(C#N)nc34)C[C@H]2C)nc1 (single isomer, unassigned) [Example 214] |  | EC50 (Human venous whole blood; [2]): 620 nM; EC50 (naïve human CD8 T cells; [3]): 120 nM |
| 2300 | 4600 | Cc1nc(C(F)(F)F)ccc1CN1C[C@H](C)N(c2cc(=O)n(C)c3ccc(C#N)nc23)C[C@H]1C [Example 279, 8-[(2S,5R)-2,5-dimethyl-4-{[2-methyl-6-(trifluoromethyl)pyridin-3-yl]methyl}piperazin-1-yl]-5-methyl-6-oxo-5,6-dihydro-1,5-naphthyridine-2-carbonitrile] | 1200 | EC50 (Human venous whole blood; [5]): 3700 nM |
|  | 570 | CCc1cc(F)ccc1C(c1ccc(Cl)cc1)N1C[C@H](C)N(c2cc(=O)n(C)c3ccc(C#N)nc23)C[C@H]1C (single isomer, unassigned) [Example 225] | 61 | EC50 (Human venous whole blood; [2]): 7600 nM |
| 390 | 1600 | C[C@@H]1CN(c2cc(=O)n(C)c3ccc(C#N)nc23)[C@@H](C)CN1Cc1c(F)cc(C#N)cc1F [Example 267, 8-[(2S,5R)-4-[(4-cyano-2,6-difluorophenyl)methyl]-2,5-dimethylpiperazin-1-yl]-5-methyl-6-oxo-5,6-dihydro-1,5-naphthyridine-2-carbonitrile] | 10000 |  |
| 5900 | 64000 | COc1ccc2c(n1)c(N1C[C@@H](C)N(C(c3ccccc3)c3ccc(F)cc3)C[C@@H]1C)cc(=O)n2C (single isomer, unassigned) [Example 239] |  | EC50 (naïve human CD8 T cells; [3]): 10000 nM |
